In patent US10485814B2, “Nicotinamide riboside analogs and pharmaceutical compositions and uses thereof” (GlaxoSmithKline Intellectual Property (No. 2) Limited, priority 2014, dated 2019):
Entries after “also recorded” stand apart in the source; their conditions may differ.

Legend:
[1] = test system: HaCaT cells; experiment: H2O2-induced reactive oxygen species (ROS) in HaCaT cells (CellROX deep red); assay type: cell-based, human; settings: 3 hr pre-incubation then 250 μM H2O2, Hydroxyterosol 0.005%, niacinamide 4.5 mM, NRH several concentrations
Description: HaCaT cells were grown as described in example 23 and were seeded in 96-well plates (Nunc™ black with optical bottom, Thermo Fisher Scientific, Inc., Waltham, Mass.) with a density at 2×10^4 cells per well and 100 μl medium in each well, and grown overnight before treatments. Stock solutions of NRH and other test compounds were prepared and diluted to 2× of final treatment concentrations in DMEM medium in 96-well storage plate as indicated in the FIG. 11. HaCaT Cells were treated in triplicates by adding 100 μl of diluted solutions of test compounds (2×) to each well containing 100 μl medium already. Cells were incubated in the presence of test compounds for 3 hrs. At the end of 3 hr incubation, cells were washed once with 200 μl DPBS with Ca^++ and Mg^++ (Life Technologies) and then fed with 100 μl DMEM medium each well containing H2O2 at 250 μM (as a ROS (reactive oxygen species) inducer, Sigma). After 30 min incubation, cells were washed once with 200 μl DPBS with Ca^++ and Mg^++ and CellROX deep red reagent (2.5 mM stock solution, Life Technologies) was added to the medium to a final concentration of 5 μM. After 1 hr incubation at 37° C., 5% CO2, Cells were washed for 3 times with DPBS, fluorescence signal was read at Ex. 640 nm and Em. 665 nm in Biotek Synergy H4 microplate reader (BioTek, Winooski, Vt.). Untreated cells were served as controls (normalized to 1). All the treated samples were normalized to the untreated control.

[2] = test system: HaCaT cells (a human keratinocyte cell line); experiment: Intracellular NAD measurement in HaCaT cells (ADPR cyclase enzymatic assay, absorbance 405 nm); assay type: cell-based
Description: HaCaT cells (AddexBio Technologies, San Diego, Calif., Passage 16-19) were grown in Medium DMEM/GlutMax (Life technologies, Grand Island, N.Y.) supplemented with 10% FBS (Life technologies) and Non-essential amino acids (NEAA, Life technologies) and then seeded in 12-well plates (Corning, Tewksbury, Mass.) with a density at 2×10^5 cells per well and 2 ml of culture medium in each well for overnight.
Stock solution of dihydronicotinamide riboside (NRH, GSK3008320A, GSK, RTP, NC) was prepared in ethanol at 100 mM (25.6 mg/ml) and stored at −20° C. Cells were treated with different concentrations of NRH for 3 hrs, washed twice with PBS containing 5 mM EDTA, and then subject to Nicotinamide adenine dinucleotide (NAD) measurement. In brief, acetonitrile (ACN) lysis buffer (Ammonium Acetate (50 mM) and 90% acetonitrile) was added to each well (200 μl/well) to lyse the cells at RT for 5-10 mins by gently rotating on a culture plate shaker at a low speed. Enzyme master mix (300 μM of 5-Amino-(3,4′-bipyridin)-6(1H)-one (Inamrinone) (Sigma-Aldrich), a substrate for ADP ribosyl cyclase (ADPR cyclase)) and 30 nM ADPR Cyclase (Sigma, St. Louis, Mo.), 7.5 μM of N-(2-fluoro-4-(methylsulfonyl)phenyl)-2-methyl-6-(thiazol-5-yl)isonicotinamide (a CD38 inhibitor) in 75 mM HEPES pH7 buffer (Life Technologies)) was added to the lysed cells (400 μl of enzyme master mix/well). Enzymatic reaction was incubated at RT for ˜30 min. At the end of incubation, the supernatant (200 μl) of the reaction solution from each well was transferred to each well of a 96-well plate and absorbance was read twice in the 96-well plate at 405 nm using a plate reader (Spectra Maxplus, Molecular Devices, Sunnyvale, Calif.). A mixture of enzyme master mix and ACN extraction solution at 2:1 ratio was used as a blank reference. NAD (Sigma) was used as a positive control.
HaCaT cells were grown as described in example 23 in the regular cell culture DMEM medium as described earlier or in the Epilife medium without nacinamide (Life Technologies). Cells were treated with different concentrations of NRH or niacinamide (NIA, DSM nutritional products) for 3 hrs, washed twice with PBS containing 5 mM EDTA, and then subject to Nicotinamide adenine dinucleotide (NAD) measurement as described in example 23. A mixture of enzyme master mix and ACN extraction solution at 2:1 ratio for a blank reference. NAD (Sigma) was used as a positive control. […] Both the CD38 inhibitor and Niacinamide increased NAD in the HaCaT cells cultured in the Vit B3 depleted culture medium, and the induction of NAD by niacinamide was dose-dependent (solid bars). However, the induction of NAD by niacinamide (highest at ˜1.5 fold) was low compared to those by NRH. Therefore, NRH is a stronger NAD inducer compared to a CD38 inhibitor or Niacinamide.
HaCaT cells were grown in regular culture media as described in example 1 and seeded in 12-well plates with density at 2×10^5 cells per well and 1 ml of culture medium in each well. NRH stock solution was prepared in ethanol at 100 mM (25.6 mg/ml) and stored at −20° C. Stock solutions of NRH esters were made at 50 mM in DMSO (see FIG. 9B for compound info). Cells were treated with NRH esters and NRH at 150 μM for 6 and 16 hrs, washed twice with PB S containing 5 mM EDTA, and then subject to Nicotinamide adenine dinucleotide (NAD) measurement as described in example 23.
HaCaT cells were grown in regular culture media as described above and seeded in 12-well plates with density at 2×10^5 cells per well and 1 ml of culture medium in each well. NRH stock solution was prepared in ethanol at 100 mM (25.6 mg/ml) and stored at −20° C. NRH (200 μM) was used as a positive control. Because of the possible solubility issue related to NRH monoC16, fatty acid-free bovine serum albumin (defatted BSA, Sigma) was used as a carrier for the compound. NRH monoC16 stock solution (100×) was complexed with defatted BSA ([…]) prior to the treatment, resulting in a NRH monoC16 stock solution (10 ×). […]

For `NC(=O)C1=CN([C@@H]2O[C@H](CO)[C@@H](O)[C@H]2O)C=CC1` [NRH, dihydronicotinamide riboside], the “H2O2-induced ROS” value [1] was “dose-dependent inhibitory activities”, the NAD levels elevation ([2]; HaCaT in DMEM medium with Vit B3, 450 μM, 3 hrs) was ~6 fold and the NAD level ([2]; HaCaT keratinocytes, different concentrations, 3 hrs, absorbance at 405 nm) was “dose-dependently increases NAD; also recorded: dose-dependently increases NAD^+”. For the same compound, the NAD boosting activity ([2]; HaCaT, 150 μM, 6 and 16 hrs) was “consistently showed strong activity on NAD elevation”.
